In US11352358B2, “FXR agonist” (XUANZHU BIOPHARMACEUTICAL CO., LTD., priority 2017, dated 2022):

Experiments:
BSEP mRNA in HepG2 cells = experiment: Relative expression of BSEP mRNA in HepG2 cells (qPCR), Experimental Example 1; assay type: cell-based, human; conditions: Table 1, 24 hrs, expression under 3 μM of PX-104 as 100%
Protocol: compounds of the present invention (for their chemical names and preparation methods, see the preparation example of each compound); compound PX-104 and compound 30-70 (for their structures, see the background of the invention, and for their preparation methods, see patent applications WO2011020615A1 and WO2012087519A1).
Cells were digested with pancreatin and collected, and the concentration of the cells was determined; according to the counting result, the cells were resuspended to a density of 7.5×10^5 cells/mL; 2 mL of the cell suspension was inoculated in each well of a 6-well cell culture plate; and the culture plate was placed in an incubator and cultured under the conditions of 37° C. and 5% CO2 for 24 hrs.
The to-be-tested compounds were diluted to 0.3 mM and 3 mM with DMSO; and 5 μL of each stock solution diluted in the previous step was added to 5 mL of medium individually. The concentrations of the obtained working solutions were 0.3 μM and 3 μM respectively. In the control group, medium was prepared by using equivoluminal DMSO instead of the stock solutions; the cell culture plate was taken out from the incubator; the medium was removed from the cell culture plate, and the working solutions and the control medium were added correspondingly; and the culture plate was then put back into the incubator and cultured under the conditions of 37° C. and 5% CO2 for 24 hrs.
after treatment for 24 hrs, the cell culture plate was taken out, and the medium was removed from the plate; the cells were rinsed three times with pre-cooled (4° C.) PBS; and 200 μL of pancreatin (preheated to 37° C.) was added to each well, and the plate was then gently shaken such that the pancreatin could evenly cover the plate bottom. The culture plate was then placed back into the incubator and incubated until the cells were separated from the plate bottom. 1 mL of medium was added to terminate digestion. The solution was gently pipetted and blown for several times with a pipettor, all the substances in each well were pipetted into a 1.5 mL Rnase-free centrifuge tube and centrifuged at 200×g for 5 mins; supernatants were removed to collect cell samples.
Cell lysis: Fresh RNA lysis buffer was prepared (wherein 10 μL of 2-mercaptoethanol was added to 1 mL of lysis buffer); 600 μL of lysis buffer was added to each cell sample; the cells were lysed completely by 1 to 2 mins of vigorous vortexing; the cell lysates were centrifuged at 12,000×g for 5 mins; and the supernatants were transferred to 1.5 mL Rnase-free centrifuge tubes.
Extraction and purification of RNA: An equal amount of 70% ethanol was added to each cell lysate; the centrifuge tubes were then shaken vigorously, and the buffer was mixed sufficiently, so that the particulate precipitates that might be formed after the addition of ethanol were dispersed as even as possible; and adsorption columns were put into collecting tubes, and the mixtures were transferred to the adsorption columns. 700 μL was transferred at most each time; and the solutions were centrifuged at 12,000×g under room temperature for 15 secs. The solutions in the collecting tubes were discarded, and the adsorption columns were put into the collecting tubes once again; and all the remaining mixtures were then transferred into the adsorption columns. 700 μL of eluent I was added to the adsorption column; and the solutions were centrifuged at 12,000×g under room temperature for 15 secs. The adsorption columns were put into new collecting tubes; 500 μL of eluent II was added to the adsorption column; and the solutions were centrifuged at 12,000×g under room temperature for 15 secs. […]

[1] = Liver microsome metabolism stability, human liver microsome; assay type: in vitro ADME; conditions: 0.5 mg protein/mL, test sample 1 μM, β-NADPH
Protocol: Test samples: the homemade compounds 1, 2, 4 and 5 of the present invention (for their chemical names and preparation methods, see the preparation example for each compound).
a mixed liver microsomes of SD rat and human both purchased from XenoTech, with batch Nos.: 1410271 (SD rat) and 1410013 (human) respectively, wherein the microsomal protein concentrations both were 20 mg mL^−1;
experimental promoter β-NADPH purchased from Roche (batch No.: 524F0231); and a phosphate buffer solution (pH 7.4) made in the lab.
An appropriate amount of the test sample powder was weighed accurately, and dissolved in an appropriate amount of dimethyl sulfoxide (DMSO) to a concentration of 1 mM; and the solution was then diluted by 20 times with methanol to yield a 50 μM working solution.
(1) According to the proportions in table 3 “Composition of the incubation system for liver microsome metabolism stability experiment” above, for each compound, 6 mL of PBS (100 mM), 0.6 mL of MgCl2 solution (20 mM) and 3.66 mL of H2O were made into a mixed solution 1 for the incubation system (not containing the microsomes, the test sample and β-NADPH).
(2) Liver microsomes (20 mg protein/mL) were taken from a refrigerator (−80° C.), and were placed on a thermostatic water bath oscillator (37° C.) and pre-incubated for 3 mins.
(3) For each compound, 1.88 mL of the mixed solution 1 for the incubation system was added with 55 μL of microsomes to obtain a mixed solution 2 for the incubation system (not containing the test sample and β-NADPH).
(4) Sample group (containing the microsomes and D-NADPH): 616 μL of mixed solution 2 for the incubation system was added with 14 μL of the test sample working solution (with a concentration of 50 μM), and with 70 μL of R-NADPH working solution (10 mM). The resulted solution was well mixed, and the resulted solution was then duplicated. The time points of sampling were at 0 min, 5th min, 10th min, 20th min, 30th min and 60th min.
(5) Control group (containing the microsomes, and water instead of D-NADPH): 264 μL of mixed solution 2 for the incubation system was added with 6 μL of the test sample working solution (50 μM), and with 30 μL of water. The resulted solution was well mixed, and the resulted solution was then duplicated. The time points of sampling were at 0 min and 60th min.
(6) 50 μL of sample was taken from an incubating sample tube at each predetermined time point, added to a terminating sample tube (containing 300 μL of cold terminator), and vortexed; and the reaction was terminated.
(7) after 10 mins of vortexing, the solution was centrifuged for 5 mins (12,000 rpm).
(8) 100 μL of supernatant was taken and added with 100 μL of water, and the mixture solution was thoroughly vortexed; and the solution was then analyzed by LC-MS/MS.
Percentages of residual contents were calculated according to the following formula.

Residual content (%) after 60 minutes of incubation [1]: 69%
SMILES: O=C(O)c1ccc2nc(N3C[C@@H]4C[C@H]3C[C@H]4OCc3c(-c4c(Cl)cccc4Cl)noc3C3CC3)sc2c1 [Compound 2-1, 2-((1S, 4S, 5R)-5-((5-cyclopropyl-3-(2,6-dichlorophenyl)isoxazol-4-yl)methoxy)-2-azabicyclo[2.2.1]heptan-2-yl)benzo[d]thiazole-6-carboxylic acid]
relative expression of BSEP mRNA in HepG2 cells (BSEP mRNA in HepG2 cells; 0.3 μM): 166% | relative expression of BSEP mRNA in HepG2 cells (BSEP mRNA in HepG2 cells; 3 μM): 185%
